In this assay the target is human chemokine receptor CXCR7 (Homo sapiens (Human), UniProt P25106). In words: Tango CXCR7-bla U2OS beta-arrestin recruitment assay (beta-lactamase reporter, FRET), antagonism of CXCL12/SDF1-α.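 Further: compounds preincubated 15 min before CXCL12 addition, then 22 h at 37 °C, FRET emission ratio read with CCF4-AM substrate after 2 h.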 The format is cell-based. The conditions noted are these: antagonistic effect on CXCR7; Tango CXCR7-bla U2OS cells, CXCL12/SDF1-α at its EC80. (In general: Activated receptors often draw arrestin, which recruitment assays turn into a signal.)
Chain of human chemokine receptor CXCR7 (P25106 whole entry): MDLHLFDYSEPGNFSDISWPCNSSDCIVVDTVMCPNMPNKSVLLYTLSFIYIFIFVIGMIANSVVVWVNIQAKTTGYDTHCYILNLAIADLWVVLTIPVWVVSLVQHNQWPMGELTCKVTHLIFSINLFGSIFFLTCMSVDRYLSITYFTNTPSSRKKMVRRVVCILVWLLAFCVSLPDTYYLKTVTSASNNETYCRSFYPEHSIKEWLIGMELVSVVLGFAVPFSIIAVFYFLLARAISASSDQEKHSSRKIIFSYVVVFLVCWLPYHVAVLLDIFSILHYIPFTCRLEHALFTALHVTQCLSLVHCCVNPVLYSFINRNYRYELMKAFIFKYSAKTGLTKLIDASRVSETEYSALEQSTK
`O=C(N[C@H]1CCN(CC2CC2)C[C@@H]1C(=O)NC1(c2ccccn2)CC1)c1nnc(-c2ccc(F)cc2F)o1` (single isomer, unassigned) [Example 3.016a, (3S,4S)-1-Cyclopropylmethyl-4-{[5-(2,4-difluoro-phenyl)-[1,3,4]oxadiazole-2-carbonyl]-amino}-piperidine-3-carboxylic acid (1-pyridin-2-yl-cyclopropyl)-amide or (3R,4R)-1-Cyclopropylmethyl-4-{[5-(2,4-difluoro-phenyl)-[1,3,4]oxadiazole-2-carbonyl]-amino}-piperidine-3-carboxylic acid (1-pyridin-2-yl-cyclopropyl)-amide] registered an IC50 of 90 nM.

With `C[C@@H](NC(=O)[C@@H]1CN(C2CCCCC2)CC[C@H]1NC(=O)c1noc(-c2ccc(F)cc2F)n1)c1ccccn1` (relative stereo) [Example 1.156, (3R*,4R*)-1-Cyclohexyl-4-{[5-(2,4-difluoro-phenyl)-[1,2,4]oxadiazole-3-carbonyl]-amino}-piperidine-3-carboxylic acid ((R)-1-pyridin-2-yl-ethyl)-amide], the IC50 was found to be 92 nM. With `COCCCN(C)C(=O)[C@@H]1CN(C2CCCCC2)CC[C@H]1NC(=O)c1cc(-c2ccc(F)cc2F)on1` (racemic) [Example 1.027, rac-(3R*,4R*)-1-Cyclohexyl-4-{[5-(2,4-difluoro-phenyl)-isoxazole-3-carbonyl]-amino}-piperidine-3-carboxylic acid (3-methoxy-propyl)-methyl-amide], half-maximal inhibition (IC50) was put at 117 nM. The compound `O=C(N[C@H]1CCN(CC2CC2)C[C@@H]1C(=O)NC1(c2nccc[n+]2[O-])CC1)c1cc(-c2ccc(F)cc2F)on1` [Example 4.077] gave an IC50 of 4 nM. Regarding `CN(C)C(=O)[C@@H]1CN(CCC(C)(C)C)CC[C@H]1NC(=O)c1cc(-c2ccc(F)cc2F)on1` [Example 2.022], the IC50 worked out at 155 nM. Take `CN(C)C(=O)[C@@H]1CN(CC2CC2)CC[C@H]1NC(=O)c1cc(-c2c(F)cc(F)cc2F)on1` [Example 1.1]: the IC50 stood at 128 nM.

As to `C[C@@H]1CC[C@H]1N1CC[C@@H](NC(=O)c2cc(-c3ccc(F)cc3F)on2)[C@H](C(=O)N(C)C)C1` [Example 2.016], half-maximal inhibition (IC50) was put at 80 nM. In turn, `O=C(N[C@H]1CCN(CC2CC2)C[C@@H]1C(=O)NC1(c2ncccn2)CC1)c1nc(-c2ccc(F)cc2F)co1` [Example 7.01] gave an IC50 of 60 nM. For the compound `C[C@@H](NC(=O)[C@@H]1CN(C2CCCCC2)CC[C@H]1NC(=O)c1cc(-c2ccc(F)cc2F)on1)c1ncc(F)cn1` (relative stereo) [Example 1.094, (3R*,4R*)-1-Cyclohexyl-4-{[5-(2,4-difluoro-phenyl)-isoxazole-3-carbonyl]-amino}-piperidine-3-carboxylic acid [(R)-1-(5-fluoro-pyrimidin-2-yl)-ethyl]-amide], the IC50 came out at 100 nM.

“rac-(3R*,4R*)-1-Cyclohexyl-4-{[5-(2-difluoro-phenyl)-oxazole-2-carbonyl]-amino}-piperidine-3-carboxylic acid (1-pyridin-2-yl-cyclopropyl)-amide [Example 3.011]”: the IC50 turned out to be 22 nM. Turning to `CN(C)C(=O)[C@@H]1CN(C2CCCC2)CC[C@H]1NC(=O)c1cn(-c2ccc(F)cc2F)nn1` (racemic) [Example 1.096, rac-(3R*,4R*)-1-Cyclopentyl-4-{[1-(2,4-difluoro-phenyl)-1H-[1,2,3]triazole-4-carbonyl]-amino}-piperidine-3-carboxylic acid dimethylamide], half-maximal inhibition (IC50) was put at 667 nM.

The compound `O=C(N[C@@H]1CCN(CC2CC2)C[C@H]1C(=O)NC1(c2ncccn2)CC1)c1cc(-c2ccc(C(F)(F)F)cc2)on1` (racemic) [Example 1.192, rac-(3R*,4R*)-1-Cyclopropylmethyl-4-{[5-(4-trifluoromethyl-phenyl)-isoxazole-3-carbonyl]-amino}-piperidine-3-carboxylic acid (1-pyrimidin-2-yl-cyclopropyl)-amide] showed an IC50 of 389 nM. The compound `O=C(N[C@@H]1CCN(CC2CC2)C[C@H]1C(=O)NC1(c2ccccn2)CCC1)c1cc(-c2ccc(F)cc2F)on1` (racemic) [Example 1.197, rac-(3R*,4R*)-1-Cyclopropylmethyl-4-{[5-(2,4-difluoro-phenyl)-isoxazole-3-carbonyl]-amino}-piperidine-3-carboxylic acid (1-pyridin-2-yl-cyclobutyl)-amide] yielded an IC50 of 11 nM. `Cc1cccc([C@H](C)NC(=O)[C@@H]2CN(C3CCCCC3)CC[C@H]2NC(=O)c2cc(-c3ccc(F)cc3F)on2)n1` (single isomer, unassigned) [Example 1.188c, (3R*,4R*)-1-Cyclohexyl-4-{[5-(2,4-difluoro-phenyl)-isoxazole-3-carbonyl]-amino}-piperidine-3-carboxylic acid [(S)-1-(6-methyl-pyridin-2-yl)-ethyl]-amide] showed an IC50 of 179 nM. `O=C(N[C@@H]1CCN(CC2CC2)C[C@H]1C(=O)NC1(c2ccccn2)CC1)c1cc(-c2c(F)cc(F)cc2F)on1` (racemic) [Example 1.171, rac-(3R*,4R*)-1-Cyclopropylmethyl-4-{[5-(2,4,6-trifluoro-phenyl)-isoxazole-3-carbonyl]-amino}-piperidine-3-carboxylic acid (1-pyridin-2-yl-cyclopropyl)-amide] had an IC50 of 16 nM. On to `CN(C)C(=O)[C@@H]1CN(C2CCCCC2)CC[C@H]1NC(=O)c1cc(-c2ccc(F)cc2Cl)on1` (racemic) [Example 3.004, rac-(3R*,4R*)-4-{[5-(2-Chloro-4-fluoro-phenyl)-isoxazole-3-carbonyl]-amino}-1-cyclohexyl-piperidine-3-carboxylic acid dimethylamide], for which half-maximal inhibition (IC50) required 338 nM. The compound `O=C(N[C@H]1CCN(CC2CC2)C[C@@H]1C(=O)NC1(c2ccncc2)CC1)c1cc(-c2ccc(F)cc2F)on1` [Example 4.027] registered an IC50 of 8 nM. As for `C[C@@H](NC(=O)[C@@H]1CN(C2CCCCC2)CC[C@H]1NC(=O)c1noc(-c2ccc(F)cc2F)n1)c1cnccn1` [Example 1.16], the figure is 526 nM; as for `COc1ccccc1C1(NC(=O)[C@H]2CN(CC3CC3)CC[C@@H]2NC(=O)c2cc(-c3ccc(F)cc3F)on2)CC1` [Example 4.074], 27 nM.

Compound `CC(NC(=O)[C@H]1CN(CC2CC2)CC[C@@H]1NC(=O)c1cc(-c2ccc(F)cc2F)on1)c1ccon1` (stereo partly drawn) [Example 4.049] had an IC50 of 148 nM. As for `CCN1CC[C@H](NC(=O)c2nnc(-c3ccc(F)cc3F)s2)[C@@H](C(=O)NC2(c3ncccn3)CC2)C1` [Example 2.107], the figure is 114 nM; as for `C[C@@H](NC(=O)[C@@H]1CN(CC2CC2)CC[C@H]1NC(=O)c1noc(-c2ccc(F)cc2F)n1)c1ccccn1` (relative stereo) [Example 1.158, (3R*,4R*)-1-Cyclopropylmethyl-4-{[5-(2,4-difluoro-phenyl)-[1,2,4]oxadiazole-3-carbonyl]-amino}-piperidine-3-carboxylic acid ((R)-1-pyridin-2-yl-ethyl)-amide], 82 nM.

As to `O=C(N[C@@H]1CCN(C2CCCCC2)C[C@H]1C(=O)N1CCC1)c1cc(-c2c(F)cc(F)cc2F)on1` (racemic) [Example 1.105, rac-5-(2,4,6-Trifluoro-phenyl)-isoxazole-3-carboxylic acid [(3R*,4R*)-3-(azetidine-1-carbonyl)-1-cyclohexyl-piperidin-4-yl]-amide], the IC50 amounted to 430 nM.

The compound `COCC(C)(C)NC(=O)[C@@H]1CN(CC2CC2)CC[C@H]1NC(=O)c1cc(-c2ccc(F)cc2F)no1` (racemic) [Example 1.151, rac-(3R*,4R*)-1-Cyclopropylmethyl-4-{[3-(2,4-difluoro-phenyl)-isoxazole-5-carbonyl]-amino}-piperidine-3-carboxylic acid (2-methoxy-1,1-dimethyl-ethyl)-amide] gave an IC50 of 554 nM.

The compound `C[C@@H](NC(=O)[C@@H]1CN(C2CCCC2)CC[C@H]1NC(=O)c1cc(-c2ccc(F)cc2F)no1)C1CCC1` (relative stereo) [Example 1.141, (3R*,4R*)-1-Cyclopentyl-4-{[3-(2,4-difluoro-phenyl)-isoxazole-5-carbonyl]-amino}-piperidine-3-carboxylic acid ((R)-1-cyclobutyl-ethyl)-amide] registered an IC50 of 379 nM. For `O=C(N[C@@H]1CCN(CC2CC2)C[C@H]1C(=O)NC1(c2ncccn2)CC1)c1noc(-c2ccc(F)cc2F)c1F` (single isomer, unassigned) [Example 3.022a, (3R,4R)-1-Cyclopropylmethyl-4-{[5-(2,4-difluoro-phenyl)-4-fluoro-isoxazole-3-carbonyl]-amino}-piperidine-3-carboxylic acid (1-pyrimidin-2-yl-cyclopropyl)-amide or (3S,4S)-1-cyclopropylmethyl-4-{[5-(2,4-difluoro-phenyl)-4-fluoro-isoxazole-3-carbonyl]-amino}-piperidine-3-carboxylic acid (1-pyrimidin-2-yl-cyclopropyl)-amide], the midpoint of inhibition, the IC50, lay at 25 nM. Compound `C[C@@H](NC(=O)[C@@H]1CN(CC2CC2)CC[C@H]1NC(=O)c1cn(-c2ccc(F)cc2F)nn1)C1CCC1` (relative stereo) [Example 1.136, (3R*,4R*)-1-Cyclopropylmethyl-4-{[1-(2,4-difluoro-phenyl)-1H-[1,2,3]triazole-4-carbonyl]-amino}-piperidine-3-carboxylic acid ((R)-1-cyclobutyl-ethyl)-amide] displayed an IC50 of 202 nM. As for `O=C(N[C@@H]1CCN(C2CCCCC2)C[C@H]1C(=O)NCc1cnccn1)c1cc(-c2ccc(F)cc2F)on1` (racemic) [Example 1.037, rac-(3R*,4R*)-1-Cyclohexyl-4-{[5-(2,4-difluoro-phenyl)-isoxazole-3-carbonyl]-amino}-piperidine-3-carboxylic acid (pyrazin-2-ylmethyl)-amide], the figure is 295 nM; as for `CC(NC(=O)[C@H]1CN(C2CCCC2)CC[C@@H]1NC(=O)c1cc(-c2ccc(F)cc2F)on1)c1nc[nH]n1` (stereo partly drawn) [Example 4.038], 522 nM. As for `CC(C)(C)NC(=O)[C@@H]1CN(C2CCCCC2)CC[C@H]1NC(=O)c1cc(-c2ccc(F)cc2F)on1` [Example 4.015], the IC50 came to 783 nM.

As usually defined, the IC50 is the concentration that inhibits the measured activity by half. A low value points to inhibition by little substance.

These data come from US11306078B2, “Piperidine CXCR7 receptor modulators” (IDORSIA PHARMACEUTICALS LTD., priority 2016, dated 2022).
